Data from ChEMBL document CHEMBL1147711, “Tetrazole thioacetanilides: potent non-nucleoside inhibitors of WT HIV reverse transcriptase and its K103N mutant” (Bioorg Med Chem Lett, 2006).

Legend:
[1] = tested on: Human immunodeficiency virus 1; assay: Antiviral activity against HIV1 in presence of 10% FBS; type: functional; conditions: read-out: CIC95
[2] = tested on: Human immunodeficiency virus type 1 reverse transcriptase (Human immunodeficiency virus 1), Q72547 [UNDEFINED MUTATION]; assay: Ratio of K103N mutant IC50 to wild type Reverse Transcriptase IC50
[3] = target: Human immunodeficiency virus type 1 reverse transcriptase (Human immunodeficiency virus 1, UniProt Q72547); assay: Inhibition of HIV1 wild type Reverse Transcriptase
[4] = tested on: Human immunodeficiency virus 1; assay: Antiviral activity against HIV1 in presence of 50% NHS; type: functional; conditions: read-out: CIC95
[5] = Oral bioavailability in rat at 3 mg/kg, iv and po; type: ADME, organism-based; conditions: in vivo

| SMILES | IC95 [1] | Ratio [2] | IC50 [3] | IC95 [4] | bioavailability [5] |
| --- | --- | --- | --- | --- | --- |
| Cc1cc(C)c(-n2nnnc2SCC(=O)Nc2ccccc2I)c(C)c1 | 312 nM | 3 | 31 nM | 1250 nM | – |
| Cc1ccc(-n2nnnc2SCC(=O)Nc2ccccc2[N+](=O)[O-])c(Br)c1 | 8 nM | 3 | 3 nM | 62 nM | – |
| Cc1cc(C)c(-n2nnnc2SCC(=O)Nc2ccc(S(N)(=O)=O)cc2C)c(C)c1 | 50 nM | 1 | 54 nM | 580 nM | 60% |
| Cc1cc(C)c(-n2nnnc2SCC(=O)Nc2c(Cl)cccc2Cl)c(C)c1 | > 5000 nM | – | > 5000 nM | > 5000 nM | – |
| Cc1cc(C)c(-n2nnnc2SCC(=O)Nc2ccccc2[N+](=O)[O-])c(C)c1 | 11 nM | 3 | 3 nM | 90 nM | 0% |
| O=C(CSc1nnnn1-c1c(Cl)cccc1Cl)Nc1ccccc1[N+](=O)[O-] | 15 nM | 1 | 4 nM | 62 nM | – |
| Cc1cc(C)c(-n2nnnc2SCC(=O)Nc2ccccc2Br)c(C)c1 | 100 nM | 5 | 7 nM | 810 nM | – |
| NS(=O)(=O)c1ccc(NC(=O)CSc2nnnn2-c2cc(Cl)ccc2Cl)c(Cl)c1 | 16 nM | 1 | 3 nM | 125 nM | 33% |
| Cc1cc(C)c(-n2nnnc2SCC(=O)Nc2ccc(C(N)=O)cc2C)c(C)c1 | 31 nM | 1 | 55 nM | 62 nM | – |
| Cc1cc(C)c(-n2nnnc2SCC(=O)Nc2cccc([N+](=O)[O-])c2)c(C)c1 | > 5000 nM | – | 200 nM | – | – |
| Cc1c(Cl)cccc1-n1nnnc1SCC(=O)Nc1ccccc1[N+](=O)[O-] | 8 nM | 3 | 3 nM | 31 nM | – |
| Cc1ccc(Cl)cc1-n1nnnc1SCC(=O)Nc1ccccc1[N+](=O)[O-] | 78 nM | 1 | 23 nM | 1250 nM | – |
| Cc1cc(C)c(-n2nnnc2SCC(=O)Nc2ccc([N+](=O)[O-])cc2Cl)c(C)c1 | 78 nM | 5 | 22 nM | 1250 nM | – |
| O=C(CSc1nnnn1-c1cc(F)ccc1Cl)Nc1ccccc1[N+](=O)[O-] | 63 nM | 1 | 10 nM | 250 nM | – |
| Cc1cc(C)c(-n2nnnc2SCC(=O)Nc2ccc(S(N)(=O)=O)cc2)c(C)c1 | 1250 nM | – | 1250 nM | > 5000 nM | – |
| Cc1cc(C)c(-n2nnnc2SCC(=O)Nc2ccc(C(N)=O)cc2Cl)c(C)c1 | 8 nM | 2 | 3 nM | 16 nM | – |
| Cc1cc(C)c(-n2nnnc2SCC(=O)Nc2ccc([N+](=O)[O-])cc2)c(C)c1 | > 5000 nM | – | > 5000 nM | > 5000 nM | – |
| Cc1cc(C)c(-n2nnnc2SCC(=O)Nc2ccc(C(=O)NCCCN(C)C)cc2Cl)c(C)c1 | 8 nM | 2 | 5 nM | 16 nM | – |
| Cc1cc(C)c(-n2nnnc2SCC(=O)Nc2ccc(Cl)cc2[N+](=O)[O-])c(C)c1 | 31 nM | 3 | 4 nM | 400 nM | – |
| Cc1cc(C)c(-n2nnnc2SCC(=O)Nc2ccc(S(N)(=O)=O)cc2Cl)c(C)c1 | 16 nM | 3 | 4 nM | 62 nM | 33% |
| O=C(CSc1nnnn1-c1cccc(Cl)c1Cl)Nc1ccccc1[N+](=O)[O-] | 78 nM | 1 | 12 nM | 125 nM | – |
| Cc1cc(C)c(-n2nnnc2SCC(=O)Nc2ccc([N+](=O)[O-])cc2C)c(C)c1 | 1250 nM | 3 | 165 nM | > 5000 nM | – |
| O=C(CSc1nnnn1-c1ccc(Cl)c(Cl)c1)Nc1ccccc1[N+](=O)[O-] | > 5000 nM | 2 | 230 nM | > 5000 nM | – |
| NS(=O)(=O)c1ccc(NC(=O)CSc2nnnn2-c2cccc(Cl)c2Cl)c(Cl)c1 | 62 nM | 1 | 9 nM | 250 nM | – |
| Cc1cc(C)c(-n2nnnc2SCC(=O)Nc2ccc(OCCCN(C)C)cc2Cl)c(C)c1 | 62 nM | 5 | 13 nM | 62 nM | – |
| Cc1cccc(-n2nnnc2SCC(=O)Nc2ccccc2[N+](=O)[O-])c1C | 63 nM | 1 | 18 nM | 250 nM | – |
| Cc1cc(C)c(-n2nnnc2SCC(=O)Nc2ccccc2Cl)c(C)c1 | – | 3 | 5 nM | – | – |
| O=C(CSc1nnnn1-c1cc(Cl)ccc1Cl)Nc1ccccc1[N+](=O)[O-] | 31 nM | 1 | 4 nM | 200 nM | – |
